Experimental data as given in patent US8952157B2, “Apoptosis-inducing agents for the treatment of cancer and immune and autoimmune diseases” (AbbVie Inc., priority 2008, dated 2015).

The compounds below were run against GST-Bcl-2 (Homo sapiens (Human), UniProt P10415) (assay: Time Resolved-Fluorescence Resonance Energy Transfer (TR-FRET) Bcl-2 binding assay). Details: GST-Bcl-2 1 nM, F-Bak peptide probe 100 nM, Tb-anti-GST antibody 1 nM; Ki by Wang's equation.
Chain of GST-Bcl-2 (P10415 whole entry): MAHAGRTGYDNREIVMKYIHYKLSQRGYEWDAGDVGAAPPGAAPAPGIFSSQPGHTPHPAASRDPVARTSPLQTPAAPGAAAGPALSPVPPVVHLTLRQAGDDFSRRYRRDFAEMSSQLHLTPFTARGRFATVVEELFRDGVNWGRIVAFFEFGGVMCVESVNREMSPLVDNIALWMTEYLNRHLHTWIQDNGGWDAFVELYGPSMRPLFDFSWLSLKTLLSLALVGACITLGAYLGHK
In short: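 Ki values derived from TR-FRET displacement of F-Bak peptide from GST-Bcl-2, detected with Tb-labelled anti-GST antibody (ex 340, em 520/495 nm). Compound dilution series started at 50 μM (2× starting concentration); room-temperature incubation 3 hours.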
Work on `CC1(C)CCC(CN2CCN(c3ccc(C(=O)NS(=O)(=O)c4ccc(NCCCN5CCOCC5)c([N+](=O)[O-])c4)c(Oc4cccc(Cl)c4)c3)CC2)=C(c2ccc(Cl)cc2)C1` [Example 128, 2-(3-chlorophenoxy)-4-(4-{[2-(4-chlorophenyl)-4,4-dimethylcyclohex-1-en-1-yl]methyl}piperazin-1-yl)-N-({4-[(3-morpholin-4-ylpropyl)amino]-3-nitrophenyl}sulfonyl)benzamide] yielded a Ki of 0.064 nM. `CC1(C)CCC(CN2CCN(c3ccc(C(=O)NS(=O)(=O)c4ccc(NC5CCN(C6CCCC6)CC5)c([N+](=O)[O-])c4)c(Oc4cccc(Cl)c4)c3)CC2)=C(c2ccc(Cl)cc2)C1` [Example 130, 2-(3-chlorophenoxy)-4-(4-{[2-(4-chlorophenyl)-4,4-dimethylcyclohex-1-en-1-yl]methyl}piperazin-1-yl)-N-({4-[(1-cyclopentylpiperidin-4-yl)amino]-3-nitrophenyl}sulfonyl)benzamide] showed a Ki of 0.067 nM. `CN1CCC(Nc2ccc(S(=O)(=O)NC(=O)c3ccc(N4CCN(CC5=C(c6ccc(Cl)cc6)CC(C)(C)CC5)CC4)cc3Oc3cccc(Cl)c3)cc2S(=O)(=O)C(F)(F)F)CC1` [Example 131, 2-(3-chlorophenoxy)-4-(4-{[2-(4-chlorophenyl)-4,4-dimethylcyclohex-1-en-1-yl]methyl}piperazin-1-yl)-N-({4-[(1-methylpiperidin-4-yl)amino]-3-[(trifluoromethyl)sulfonyl]phenyl}sulfonyl)benzamide] was tested, and the Ki was 0.066 nM. For `CC1(C)CCC(CN2CCN(c3ccc(C(=O)NS(=O)(=O)c4ccc(NC5CCN(C6CC6)CC5)c([N+](=O)[O-])c4)c(Oc4cccc(F)c4)c3)CC2)=C(c2ccc(Cl)cc2)C1` [Example 132, 4-(4-{[2-(4-chlorophenyl)-4,4-dimethylcyclohex-1-en-1-yl]methyl}piperazin-1-yl)-N-({4-[(1-cyclopropylpiperidin-4-yl)amino]-3-nitrophenyl}sulfonyl)-2-(3-fluorophenoxy)benzamide], the Ki was 0.211 nM. For `CC1(C)CCC(CN2CCN(c3ccc(C(=O)NS(=O)(=O)c4ccc(NC5CCN(C6CCCC6)CC5)c([N+](=O)[O-])c4)c(Oc4cccc(F)c4F)c3)CC2)=C(c2ccc(Cl)cc2)C1` [Example 133, 4-(4-{[2-(4-chlorophenyl)-4,4-dimethylcyclohex-1-en-1-yl]methyl}piperazin-1-yl)-N-({4-[(1-cyclopentylpiperidin-4-yl)amino]-3-nitrophenyl}sulfonyl)-2-(2,3-difluorophenoxy)benzamide], the Ki was 0.055 nM. `CC1(C)CCC(CN2CCN(c3ccc(C(=O)NS(=O)(=O)c4ccc(NCCN5CCOCC5)c([N+](=O)[O-])c4)c(Oc4cccc(F)c4F)c3)CC2)=C(c2ccc(Cl)cc2)C1` [Example 135, 4-(4-{[2-(4-chlorophenyl)-4,4-dimethylcyclohex-1-en-1-yl]methyl}piperazin-1-yl)-2-(2,3-difluorophenoxy)-N-({4-[(2-morpholin-4-ylethyl)amino]-3-nitrophenyl}sulfonyl)benzamide] was tested, and the Ki was 0.068 nM. For `CC1(C)CCC(CN2CCN(c3ccc(C(=O)NS(=O)(=O)c4ccc(NC5CCN(Cc6ccsc6)CC5)c([N+](=O)[O-])c4)c(Oc4cccc(F)c4F)c3)CC2)=C(c2ccc(Cl)cc2)C1` [Example 136, 4-(4-{[2-(4-chlorophenyl)-4,4-dimethylcyclohex-1-en-1-yl]methyl}piperazin-1-yl)-2-(2,3-difluorophenoxy)-N-[(3-nitro-4-{[1-(thien-3-ylmethyl)piperidin-4-yl]amino}phenyl)sulfonyl]benzamide], the Ki was 0.177 nM. With `CN(C)CCCNc1ccc(S(=O)(=O)NC(=O)c2ccc(N3CCN(CC4=C(c5ccc(Cl)cc5)CC(C)(C)CC4)CC3)cc2Oc2ccccc2F)cc1[N+](=O)[O-]` [Example 137, 4-(4-{[2-(4-chlorophenyl)-4,4-dimethylcyclohex-1-en-1-yl]methyl}piperazin-1-yl)-N-[(4-{[3-(dimethylamino)propyl]amino}-3-nitrophenyl)sulfonyl]-2-(2-fluorophenoxy)benzamide] the Ki was 0.021 nM. With `CN(C)CCCNc1ccc(S(=O)(=O)NC(=O)c2ccc(N3CCN(CC4=C(c5ccc(Cl)cc5)CC(C)(C)CC4)CC3)cc2Oc2cccc(F)c2)cc1[N+](=O)[O-]` [Example 138, 4-(4-{[2-(4-chlorophenyl)-4,4-dimethylcyclohex-1-en-1-yl]methyl}piperazin-1-yl)-N-[(4-{[3-(dimethylamino)propyl]amino}-3-nitrophenyl)sulfonyl]-2-(3-fluorophenoxy)benzamide] the Ki was 0.016 nM. `CN(C)CCCNc1ccc(S(=O)(=O)NC(=O)c2ccc(N3CCN(CC4=C(c5ccc(Cl)cc5)CC(C)(C)CC4)CC3)cc2Oc2ccc(F)cc2)cc1[N+](=O)[O-]` [Example 139, 4-(4-{[2-(4-chlorophenyl)-4,4-dimethylcyclohex-1-en-1-yl]methyl}piperazin-1-yl)-N-[(4-{[3-(dimethylamino)propyl]amino}-3-nitrophenyl)sulfonyl]-2-(4-fluorophenoxy)benzamide] showed a Ki of 0.125 nM. Compound `CC1(C)CCC(CN2CCN(c3ccc(C(=O)NS(=O)(=O)c4ccc(NC5CCN(CCF)CC5)c([N+](=O)[O-])c4)c(Oc4cccc(F)c4F)c3)CC2)=C(c2ccc(Cl)cc2)C1` [Example 140, 4-(4-{[2-(4-chlorophenyl)-4,4-dimethylcyclohex-1-en-1-yl]methyl}piperazin-1-yl)-2-(2,3-difluorophenoxy)-N-[(4-{[1-(2-fluoroethyl)piperidin-4-yl]amino}-3-nitrophenyl)sulfonyl]benzamide] has a Ki of 0.223 nM. `CC1(C)CCC(CN2CCN(c3ccc(C(=O)NS(=O)(=O)c4ccc(NCCN5CCOCC5)c([N+](=O)[O-])c4)c(Oc4cccc(Cl)c4)c3)CC2)=C(c2ccc(Cl)cc2)C1` [Example 141, 2-(3-chlorophenoxy)-4-(4-{[2-(4-chlorophenyl)-4,4-dimethylcyclohex-1-en-1-yl]methyl}piperazin-1-yl)-N-({4-[(2-morpholin-4-ylethyl)amino]-3-nitrophenyl}sulfonyl)benzamide] gave a Ki of 0.482 nM. `CN(C)CCCNc1ccc(S(=O)(=O)NC(=O)c2ccc(N3CCN(CC4=C(c5ccc(Cl)cc5)CC(C)(C)CC4)CC3)cc2Oc2cccc(Cl)c2)cc1[N+](=O)[O-]` [Example 142, 2-(3-chlorophenoxy)-4-(4-{[2-(4-chlorophenyl)-4,4-dimethylcyclohex-1-en-1-yl]methyl}piperazin-1-yl)-N-[(4-{[3-(dimethylamino)propyl]amino}-3-nitrophenyl)sulfonyl]benzamide] showed a Ki of 0.071 nM. `CN1CCN(CCCNc2ccc(S(=O)(=O)NC(=O)c3ccc(N4CCN(CC5=C(c6ccc(Cl)cc6)CC(C)(C)CC5)CC4)cc3Oc3cccc(Cl)c3)cc2[N+](=O)[O-])CC1` [Example 143, 2-(3-chlorophenoxy)-4-(4-{[2-(4-chlorophenyl)-4,4-dimethylcyclohex-1-en-1-yl]methyl}piperazin-1-yl)-N-[(4-{[3-(4-methylpiperazin-1-yl)propyl]amino}-3-nitrophenyl)sulfonyl]benzamide] gave a Ki of 0.053 nM. In the case of `CN1CCC(Nc2ccc(S(=O)(=O)NC(=O)c3ccc(N4CCN(CC5=C(c6ccc(Cl)cc6)CC(C)(C)OC5)CC4)cc3Oc3cccc(Cl)c3)cc2[N+](=O)[O-])CC1` [Example 144, 2-(3-chlorophenoxy)-4-(4-{[4-(4-chlorophenyl)-6,6-dimethyl-5,6-dihydro-2H-pyran-3-yl]methyl}piperazin-1-yl)-N-({4-[(1-methylpiperidin-4-yl)amino]-3-nitrophenyl}sulfonyl)benzamide], the Ki is reported as 0.028 nM. For `CN1CCC(Nc2ccc(S(=O)(=O)NC(=O)c3ccc(N4CCN(CC5=C(c6ccc(Cl)cc6)CC(C)(C)OC5)CC4)cc3Oc3cccc(F)c3F)cc2[N+](=O)[O-])CC1` [Example 145, 4-(4-{[4-(4-chlorophenyl)-6,6-dimethyl-5,6-dihydro-2H-pyran-3-yl]methyl}piperazin-1-yl)-2-(2,3-difluorophenoxy)-N-({4-[(1-methylpiperidin-4-yl)amino]-3-nitrophenyl}sulfonyl)benzamide], the Ki was 0.057 nM. `C=CCN1CCC(Nc2ccc(S(=O)(=O)NC(=O)c3ccc(N4CCN(CC5=C(c6ccc(Cl)cc6)CC(C)(C)CC5)CC4)cc3Oc3cccc(F)c3F)cc2[N+](=O)[O-])CC1` [Example 146, N-({4-[(1-allylpiperidin-4-yl)amino]-3-nitrophenyl}sulfonyl)-4-(4-{[2-(4-chlorophenyl)-4,4-dimethylcyclohex-1-en-1-yl]methyl}piperazin-1-yl)-2-(2,3-difluorophenoxy)benzamide] was tested, and the Ki was 0.04 nM. `CN1CCC(Nc2ccc(S(=O)(=O)NC(=O)c3ccc(N4CCN(CC5=C(c6ccc(Cl)cc6)CC(C)(C)CC5)CC4)cc3Oc3cccc(Cl)c3F)cc2[N+](=O)[O-])CC1` [Example 147, 2-(3-chloro-2-fluorophenoxy)-4-(4-{[2-(4-chlorophenyl)-4,4-dimethylcyclohex-1-en-1-yl]methyl}piperazin-1-yl)-N-({4-[(1-methylpiperidin-4-yl)amino]-3-nitrophenyl}sulfonyl)benzamide] was tested, and the Ki was 0.127 nM. Compound `CC1(C)CCC(CN2CCN(c3ccc(C(=O)NS(=O)(=O)c4ccc(NCCCN5CCOCC5)c([N+](=O)[O-])c4)c(Oc4cccc(Cl)c4F)c3)CC2)=C(c2ccc(Cl)cc2)C1` [Example 148, 2-(3-chloro-2-fluorophenoxy)-4-(4-{[2-(4-chlorophenyl)-4,4-dimethylcyclohex-1-en-1-yl]methyl}piperazin-1-yl)-N-({4-[(3-morpholin-4-ylpropyl)amino]-3-nitrophenyl}sulfonyl)benzamide] has a Ki of 0.106 nM. Compound `CC1(C)CCC(CN2CCN(c3ccc(C(=O)NS(=O)(=O)c4ccc(NCCN5CCOCC5)c([N+](=O)[O-])c4)c(Oc4cccc(Cl)c4F)c3)CC2)=C(c2ccc(Cl)cc2)C1` [Example 150, 2-(3-chloro-2-fluorophenoxy)-4-(4-{[2-(4-chlorophenyl)-4,4-dimethylcyclohex-1-en-1-yl]methyl}piperazin-1-yl)-N-({4-[(2-morpholin-4-ylethyl)amino]-3-nitrophenyl}sulfonyl)benzamide] has a Ki of 0.759 nM.
